Like-named read-outs stand apart in the source and are kept apart here. Values belong to the molecule of their own block, whether it stands above or below them.
Assays:
HNDFs [1] = assay: Cell proliferation, trypan blue exclusion assay in HG-induced HNDFs; format: cell-based, human; conditions: with HG (30 mM) for 72 h (Figure 2D)
Description: Cell proliferation was evaluated using trypan blue exclusion assay as described previously with minor modification. Cells were plated into 6-well plates at a density of 5 × 10^4 cells/well. After incubation overnight, cells were treated with test samples in the presence or absence of HG for 24-72 h. Cells exposed to 0.2% Trypan blue were then counted in a hemocytometer, and cells stained with Trypan blue were excluded. Percentage of viable cells was calculated based on the ratio of viable cells to total cell population in each well. The proliferation rate was calculated based on the number of viable cells in HG or sample-treated groups versus the NG-treated group.

HNDFs [2] = assay: SA-β-gal senescence assay in HG-induced HNDFs; format: cell-based, human; conditions: for SA-β-gal positive cells: 10 μM with HG (30 mM) for 72 h, HG alone 9.59-fold (Figure 2B); for HG-induced SA-β-gal activity in kinase inhibitor-treated cells: inhibitor 30 μM with HG (30 mM) for 72 h (Figure 4H)
Description: (§1) Human normal dermal fibroblasts (HNDFs, CCD966SK) and human umbilical vein endothelial cells (HUVECs) were obtained from the Bioresource Collection and Research Center (BCRC), Hsinchu, Taiwan. HNDFs were grown in MEM containing 10% FBS, 2 mM L-glutamine, 100 U/mL penicillin and streptomycin at 37°C in a fully humidified atmosphere of 5% CO2. Likewise, HUVECs were grown in M-199 medium supplemented with ECGS, heparin, 10% FBS and 100 U/mL penicillin and streptomycin at 37°C in a fully humidified atmosphere of 5% CO2. High-glucose treatment was performed by treating cells with 15 or 30 mM D-glucose (HG) for 24-72 h.
Senescence-associated β-galactosidase (SA-β-gal) activity was determined in formaldehyde-fixed histochemical staining kit according to the manufacturer's instructions (Cell Signaling Technology, Danvers, […]). Briefly, cells were grown in 6-well plates at a density of 5 × 10^4 cells/well, and incubated with HG or test samples for 48 h (HUVECs) or 72 h (HNDFs). After incubation, cells were stained with SA-β-gal staining solution at pH 6.0 overnight and then the development of blue staining was observed and photographed under a bright-field microscope (Motic Electric Group, Xiamen, P.R. China).

HNDFs [3] = assay: Cytotoxicity of antcins against HNDFs (MTT assay); format: cell-based, human; conditions: for IC50: MTT assay, read-out: IC50 (50% inhibitory concentration) against HNDFs; for cytotoxicity to HNDFs up to the high treatment concentration: up to 20 μM, 72 h, MTT
Description: Figure 2 Effects of antcins on HG-induced senescence in HNDFs A. Type of antcins subjected to screen for potential anti-aging agents for skin aging. Names and chemical structures of the antcins are shown in the left and centrer column, respectively. The cytotoxic effects of antcins against HNDFs. Briefly, HNDFs were incubated with increasing concentrations (1, 5, 10 and 20 μM) of antcins including antcin A, antcin B, antcin C, antcin H, anticn K and antcin M for 72 h and the cell viability was determined by MTT assay. The 50% inhibitory concentrations (IC50) of each compound against HNDFs are shown in right column. B. Cells were incubated with antcin A (10 μM), antcin H (10 μM) and antcin M (10 μM) in the presence of HG (30 mM) for 72 h. Cellular senescence was determined by SA-β-gal activity. […] C. HNDFs were incubated with antcin A (10 μM), antcin H (10 μM) and antcin M (10 μM) in the presence of HG (30 mM) for 72 h. Senescence-associated marker proteins such as p16^INK4A, p21^CIP1 and SMP30 were determined by western blot analysis. D. To determine the effect of antcins on cell proliferation efficacy, HNDFs 5 × 10^4 cells/well in 6-well plates were incubated with antcins in the presence of HG (30 mM) for 72 h. Number of viable cells were quantified by the tryphan blue exclusion method. Results are expressed as mean ± S.E.M of three indipendent expriments. Statistical significance was et at ^ФP < 0.05 compared to NG vs HG and *P < 0.05 compared to HG vs. samples.
as §1
Cell viability was assessed by MTT colorimetric assay. Briefly, HNDFs (2 × 10^4 cells/well) or HUVECs (5 × 10^4 cells/well) were seeded in a 24-well culture plate. After treatment with HG (15 and 30 mM) in the presence or absence of samples for 24-72 h, culture media was withdrawn and incubated with MTT (1 mg/mL) in fresh medium for 2 h. The MTT formazan crystals were dissolved in 400 μL of DMSO and the samples were measured at 570 nm […] using an ELISA microplate reader (Bio-Tek Instruments, Winooski, VT). The percentage of cell viability (%) was calculated as (A570 of treated cells/A570 of untreated cells) × 100.

[4] = system: p16INK4A, p21CIP1 and SMP30; assay: Western blot of senescence-associated marker proteins in HG-induced HNDFs; format: cell-based, human; conditions: 10 μM with HG (30 mM) for 72 h, immunoblotting
Description: Cells were lysed by either RIPA lysis buffer or nuclear and cytoplasmic extraction reagents (Thermo Fisher Scientific). Protein concentrations were determined by Bio-Rad protein assay reagent (Bio-Rad Laboratories, Hercules, CA). Equal amounts of protein samples (60 μg) were separated by 7-12% SDS-PAGE and the separated proteins were transferred onto polyvinylidene […] (PVDC) membrane overnight. The transferred protein membranes were blocked with 5% non-fat dried milk for 30 min, followed by incubation with specific primary antibodies overnight, and either horseradish peroxidase-conjugated goat anti-rabbit or anti-mouse antibodies for 2 h. The blots were detected using VL Chemi-Smart 3000 (Viogene Biotek, Sunnyvale, CA) with the enhanced chemiluminescence (ECL) western blotting reagent (Millipore, Billerica, MA).

[5] = system: Nrf2 transcriptional activity (ARE promoter); assay: ARE luciferase reporter assay in HNDFs; format: cell-based, human; conditions: for ANM-induced ARE luciferase activity after inhibitor pretreatment: inhibitor pre-incubation 2 h, then ANM 6 h in the presence of HG; for ARE luciferase activity: 6 h
Description: ARE promoter activity was measured using a dual-luciferase reporter assay system (Promega, Madison, WI). […] Cells were then transfected with ARE plasmid (Qiagen, Hilden, Germany) using Lipofectamine 2000 (Invitrogen) and incubated for 36 h. […] The cell lysate was prepared and incubated with luciferase agents and the relative luminescence intensity was quantified using a spectrophotometer (Hidex Oy, Turku, Finland).

[6] = Cell-free DPPH free-radical scavenging assay
Description: Therefore, next to determine whether ANM acts directly as a free-radical scavenger, we performed a cell-free DPPH free-radical scavenging assay.
Figure 5 Antcin M activates Nrf2-dependent anti-oxidant defense in HNDFs A. To determine the free-radical scavenging effect of ANM, cell-free DPPH assay was performed. […] Results expressed as mean ± S.E.M of three indipendent expriments.

HNDFs [7] = assay: Flow cytometric detection of intracellular ROS (DCFH2-DA) in HNDFs; format: cell-based, human
Description: Intracellular ROS accumulation was determined using the dye DCFH2-DA following a procedure described earlier. Briefly, HNDFs (1 × 10^5 cells/well) were seeded in 6-well plates and incubated with HG in the presence or absence of test samples for 24 h. At the end of the incubation, the culture supernatant was removed and cells were washed twice with PBS. DCFH2-DA (10 μM) was mixed with 500 μL MEM and added to the culture plate. After incubation for 30 minutes, cells were collected by trypsin and the fluorescence shift was quantified using a flow cytometer (Beckman Coulter). Data were acquired and analyzed using CXP software (Beckman Coulter).

HNDFs [8] = assay: Cell-cycle analysis by flow cytometry (PI) in HG-induced HNDFs; format: cell-based, human; conditions: NAC 100 μM with HG (30 mM) for 72 h
Description: HNDFs at a density of 5 × 10^5 cells in 10 cm dishes were treated with ANM or NAC in the presence or absence of HG for 72 h. Cells were collected, washed with PBS and fixed in 95% cold-ethanol, and kept at −20°C overnight. The cell pellet was then washed again with PBS and centrifuged at 1500 × g for 5 min. The pellet was re-suspended in 1 mL PI/Triton X-100 (20 μg/mL PI, 0.1% Triton X-100 and 0.2 mg/mL RNAse) and incubated on ice for 30 min. The total cellular DNA content was analyzed with a flow cytometer (Beckman Coulter FC500). Data were acquired and analyzed using CXP software (Beckman Coulter).

[9] = system: C. elegans wild type Bristol N2; assay: Life span assay in C. elegans; format: in vivo, Caenorhabditis elegans; conditions: ANM 10 μM or RES 438 μM alone, compared to the control
Description: The wild type Bristol N2 strain was used in this study. C. elegans and Escherichia coli OP50 strain were obtained from the Caenorhabditis Genetic Center, University of Minnesota (Minneapolis-St. Paul, MN). Worms were maintained at 20°C on nematode growth medium (NGM). Hatched worms (L1-stage larvae) were transferred to fresh agar plates and cultured with E. coli OP50 as a food source until they reached the L4 larvae stage. Synchronization of worm cultures was achieved by hypochlorite treatment of gravid hermaphrodites. […] Control worms were treated with 0.1% DMSO. All worms were kept 20°C to develop adulthood. Surviving and dead animals were counted daily (starting from the first day of adulthood) until all worms had died. […] Worms suffering from internal hatch (a defect in egg-laying) and those that crawled off the NGM plate were not included in the life-span assay. During the reproductive period, adult worms were transferred to fresh NGM plates every and then every other day thereafter. Life span assay result was obtained from three independent assays.

HUVECs = assay: Cell viability of HUVECs (MTT assay); format: cell-based, human; conditions: ANM 10 μM or RES 5 μM for 48 h
Description: Human normal dermal fibroblasts ([…]) and human umbilical vein endothelial cells (HUVECs) were obtained from the Bioresource Collection and Research Center (BCRC), Hsinchu, Taiwan. […] Likewise, HUVECs were grown in M-199 medium supplemented with ECGS, heparin, 10% FBS and 100 U/mL penicillin and streptomycin at 37°C in a fully humidified atmosphere of 5% CO2. High-glucose treatment was performed by treating cells with 15 or 30 mM D-glucose (HG) for 24-72 h. […] Cell viability was assessed by MTT colorimetric assay. […] After treatment with HG (15 and 30 mM) in the presence or absence of samples for 24-72 h, culture media was withdrawn and incubated with MTT (1 mg/mL) in fresh medium for 2 h. The MTT formazan crystals were dissolved in 400 μL of DMSO and the samples were measured at 570 nm […] using an ELISA microplate reader (Bio-Tek Instruments, Winooski, VT). The percentage of cell viability (%) was calculated as (A570 of treated cells/A570 of untreated cells) × 100.

[10] = Homo sapiens, 72 h, 1, 5, 10 and 20 μM for 72 h

Structure (SMILES): C=C(CC[C@@H](C)[C@H]1CC[C@H]2C3=C(C(=O)C[C@]12C)[C@@]1(C)CCC(=O)[C@@H](C)[C@@H]1CC3)C(C)C(=O)O (some centres unmarked) [ANA, antcin A]
- cell proliferation compared to the HG treatment group (HNDFs [1]): partially increased cell proliferation
- SA-β-gal positive cells (HNDFs [2]): 7.46 fold
- IC50 (HNDFs [3]; [10]): > 50 µM
- HG-induced upregulation of p16INK4A and p21CIP1 proteins [4]: moderate inhibition

Structure (SMILES): C=C(CC[C@@H](C)[C@H]1CC[C@H]2C3=C(C(=O)C[C@]12C)[C@@]1(C)CCC(=O)[C@@H](C)[C@@H]1CC3=O)[C@H](C)C(=O)O [ANB, antcin B]
- IC50 (HNDFs [3]; [10]): 7.11 µM

Structure (SMILES): C=C(CCC(C)C1CCC2C3=C(C(=O)CC21C)C1(C)CCC(=O)C(C)C1CC3O)C(C)C(=O)O (centres unmarked) [ANC, antcin C]
- IC50 (HNDFs [3]; [10]): > 50 µM
- cytotoxicity to HNDFs up to the high treatment concentration (HNDFs [3]): did not show significant cytotoxicity

Structure (SMILES): C=C(CCC(C)C1CCC2C3=C(C(=O)C(O)C21C)C1(C)CCC(O)C(C)C1CC3=O)C(C)C(=O)O (centres unmarked) [ANH, antcin H]
- cell proliferation compared to the HG treatment group (HNDFs [1]): partially increased cell proliferation
- SA-β-gal positive cells (HNDFs [2]): 8.13 fold
- IC50 (HNDFs [3]; 1, 5, 10 and 20 μM for 72 h): > 50 µM
- cytotoxicity to HNDFs up to the high treatment concentration (HNDFs [3]): did not show significant cytotoxicity
- HG-induced upregulation of p16INK4A and p21CIP1 proteins [4]: moderate inhibition

Structure (SMILES): C=C(CC[C@@H](C)[C@H]1CC[C@H]2C3=C(C(=O)C[C@]12C)[C@@]1(C)CC[C@@H](O)[C@](C)(O)[C@@H]1C[C@@H]3O)C(C)C(=O)O (some centres unmarked) [ANK, antcin K]
- IC50 (HNDFs [3]; [10]): 2.89 µM

- ANM-induced ARE luciferase activity after inhibitor pretreatment [5]: effectively suppressed
Structure (SMILES): O=c1cc(N2CCOCC2)oc2c(-c3ccccc3)cccc12 [LY294002, reference compound]
- HG-induced SA-β-gal activity in kinase inhibitor-treated cells (HNDFs [2]): reduced

- ARE luciferase activity ([5]; ANM 10 μM or NAC 100 μM alone, control 1-fold): 6.3 fold
- ARE luciferase activity ([5]; co-treated with HG (30 mM), ANM 10 μM or NAC 100 μM, HG alone 2.5-fold): 8.2 fold
Structure (SMILES): CC(=O)N[C@@H](CS)C(=O)O [NAC, N-acetylcysteine, reference compound]
- free-radical scavenging in the cell-free system [6]: potent free-radical scavenging effect
- HG-induced ROS generation (HNDFs [7]; ANM 10 μM or NAC 100 μM with HG (30 mM) for 24 h, HG alone 426.2%): 176.58%
- ROS generation, treatment alone (HNDFs [7]; ANM 10 μM or NAC 100 μM without HG, 24 h): did not significantly increase ROS generation
- HG-induced cell-cycle arrest (HNDFs [8]): partially blocked

- ANM-induced ARE luciferase activity after inhibitor pretreatment [5]: effectively suppressed
Structure (SMILES): COc1cccc(-c2cc(=O)c3ccccc3o2)c1N [PD98059, reference compound]
- HG-induced SA-β-gal activity in kinase inhibitor-treated cells (HNDFs [2]): did not affect

Structure (SMILES): Oc1ccc(/C=C/c2cc(O)cc(O)c2)cc1 [RES, resveratrol, reference compound]
- life span of C. elegans under normal condition [9]: highly comparable
- cell viability of HUVECs, treatment alone (HUVECs): did not affect cell viability

Structure (SMILES): C[S+]([O-])c1ccc(-c2nc(-c3ccncc3)c(-c3ccc(F)cc3)[nH]2)cc1 (centres unmarked) [SB203580, reference compound]
- HG-induced SA-β-gal activity in kinase inhibitor-treated cells (HNDFs [2]): barely observed
- ANM-induced ARE luciferase activity after inhibitor pretreatment [5]: partially or barely inhibited

- ANM-induced ARE luciferase activity after inhibitor pretreatment [5]: partially or barely inhibited
Structure (SMILES): Oc1c2ccccc2c2c3c(cccc13)N=N2 [SP600125, reference compound]
- HG-induced SA-β-gal activity in kinase inhibitor-treated cells (HNDFs [2]): barely observed
